As usually defined, the IC50 is the midpoint of a concentration-inhibition curve. A high value points to lower potency.

We go through 58 molecules from ChEMBL document CHEMBL5360544, “Design, synthesis, and biological evaluation of diaryl heterocyclic derivatives targeting tubulin polymerization with potent anticancer activities” (Eur J Med Chem, 2023).

One series deals with HCT-116. Kind of series: Antiproliferative activity against human HCT-116 cells incubated for 48 hrs by CCK-8 assay. It is filed as functional, cell-based. The note with it: HCT-116, 48 h. On the technique in general: Tetrazolium dyes change colour on reduction, which living cells bring about.
The next series deals with HepG2. Briefly: Antiproliferative activity against human HepG2 cells incubated for 48 hrs by CCK-8 assay. It counts as functional, cell-based. The note with it: HepG2, 48 h.
Another series deals with SW480. Kind of series: Antiproliferative activity against human SW480 cells incubated for 48 hrs by CCK-8 assay. It is filed as functional, cell-based. The settings on record: SW480, 48 h.
Another series concerns HeLa. Briefly: Antiproliferative activity against human HeLa cells incubated for 48 hrs by CCK-8 assay. It is filed as functional, cell-based.
A further series concerns MDA-MB-231. Kind of series: Antiproliferative activity against human MDA-MB-231 cells incubated for 48 hrs by CCK-8 assay. It counts as functional, cell-based. The note with it: MDA-MB-231, 48 h.
A short description of series [1]: Antiproliferative activity against human HEK293T cells incubated for 48 hrs by CCK-8 assay. It counts as toxicity, cell-based, HEK-293T.

In turn, `COc1cc(-c2cnc(N)nc2-c2cc(OC)c(OC)c(OC)c2)cc(OC)c1OC` came in with an IC50 in the series on HCT-116 above 64 µM.
On the same count and under the same terms, in the case of `CCOc1cc(-c2cnc(N)nc2-c2cc(OC)c(OC)c(OC)c2)ccc1Cl` it was above 64 µM; in that of `COc1cc(-c2ccnn2-c2cccc([N+](=O)[O-])c2)cc(OC)c1OC`, above 64 µM; in that of `COc1ccc(-n2nccc2-c2cc(OC)c(OC)c(OC)c2)cn1`, above 64 µM.
In the case of `COc1cc(-c2nc(N)ncc2-c2ccc(Cl)cc2)cc(OC)c1OC`, the IC50 in the series with HCT-116 was above 64 µM.
Molecule `COc1cc(-c2ccnn2-c2ccc(O)cc2)cc(OC)c1OC` had a concentration for half-maximal inhibition (IC50) in the series on HCT-116 above 64 µM.
Consider `COc1cc(-c2nc(N)ncc2-c2c[nH]c3ccccc23)cc(OC)c1OC`, for which the IC50 in the series on HCT-116 is above 64 µM.
In the case of `COc1cc(-c2nc(N)ncc2-c2ccc3cc[nH]c3c2)cc(OC)c1OC`, the 50% inhibitory concentration (IC50) with HCT-116 amounted to 3.87 µM; in the series with HepG2 it was 1.37 µM; in the series with SW480 it was 36.8 µM; in the series on HeLa, 19.3 µM; in the series with MDA-MB-231 it was 27.1 µM. The same molecule yielded an IC50 at 48 h in series [1] above 80 µM.
In the series with HCT-116, `COc1cc(-c2ccnn2-c2ccc(S(C)(=O)=O)cc2)cc(OC)c1OC` came in with a half-maximal inhibitory concentration (IC50) above 64 µM.
The same measure, in the same setting: in the case of `COc1cc(-c2cnc(N)nc2-c2cc(OC)c(OC)c(OC)c2)ccc1O` it was above 64 µM.
Take `COc1cc(-c2nc(N)ncc2-c2ccc3c(cnn3C)c2)cc(OC)c1OC`: the half-maximal inhibitory concentration (IC50) in the series with HCT-116 was above 64 µM.
Molecule `COc1cc(-c2nc(N)ncc2-c2ccc(N)cc2)cc(OC)c1OC` yielded a half-maximal inhibitory concentration (IC50) in the series on HCT-116 of 38.5 µM.
`COC(=O)c1ccc(-n2nccc2-c2cc(OC)c(OC)c(OC)c2)cc1` had an IC50 in the series on HCT-116 above 64 µM.
Regarding `COc1cc(-c2ccnn2-c2ccc(C)cc2)cc(OC)c1OC`, the half-maximal inhibitory concentration (IC50) with HCT-116 was 17 µM; in the series with HepG2, 10.3 µM; with SW480 it was 37.9 µM; in the series on HeLa, 46.6 µM; in the series on MDA-MB-231, 7.29 µM. In addition, the IC50 at 48 h in series [1] was above 80 µM.
As for `COc1cc(-c2nc(N)ncc2-c2ccc3c(ccn3C)c2)cc(OC)c1OC`, the half-inhibitory concentration (IC50) in the series with HCT-116 is 14.7 µM; with HepG2 it was 30.8 µM; with SW480, 5.05 µM; in the series on HeLa, 7.54 µM; in the series with MDA-MB-231, above 64 µM. For the same molecule, the IC50 at 48 h in series [1] was above 80 µM.
`COc1cc(-c2ccnn2-c2cccnc2)cc(OC)c1OC`: the IC50 in the series with HCT-116 was above 64 µM.
For the molecule `COc1cc(-c2nc(N)ncc2-c2ccccc2)cc(OC)c1OC`, the IC50 in the series with HCT-116 was above 64 µM.
In turn, `COc1cc(-c2ccnn2-c2ccc(F)cc2)cc(OC)c1OC` registered a half-inhibitory concentration (IC50) with HCT-116 above 64 µM.
The molecule `COc1cc(-c2ccnn2-c2cccc(N)c2)cc(OC)c1OC` had an IC50 with HCT-116 above 64 µM.
`COc1cc(-c2nc(N)ncc2-c2ccc([N+](=O)[O-])cc2)cc(OC)c1OC` registered a 50% inhibitory concentration (IC50) in the series on HCT-116 above 64 µM.
Turning to `COc1cc(-c2ccnn2-c2ccc([N+](=O)[O-])cc2)cc(OC)c1OC`, the IC50 in the series on HCT-116 is above 64 µM.
Take `CNS(=O)(=O)Cc1ccc(-n2nccc2-c2cc(OC)c(OC)c(OC)c2)cc1`: the IC50 in the series on HCT-116 was above 64 µM.
Same read-out and setting: in the case of `COc1cc(-c2nc(N)ncc2-c2ccccc2C)cc(OC)c1OC` it was above 64 µM; in that of `COc1ccc(-n2nccc2-c2cc(OC)c(OC)c(OC)c2)cc1`, above 64 µM; in that of `COc1cc(-c2nc(N)ncc2-c2cn(S(=O)(=O)c3ccccc3)c3ccccc23)cc(OC)c1OC`, above 64 µM.
Take `COc1cc(-c2nc(N)ncc2-c2cccc(C)c2)cc(OC)c1OC`: the IC50 in the series with HCT-116 is above 64 µM.
With `COc1cc(-c2ccnn2-c2ccc(C#N)cc2)cc(OC)c1OC`, the IC50 in the series with HCT-116 is above 64 µM.
Still for that read-out and setting: the same measure for `COc1cc(-c2ccnn2-c2ccc(C(=O)O)cc2)cc(OC)c1OC`: above 64 µM.
Regarding `CCn1c2ccccc2c2cc(-c3cnc(N)nc3-c3cc(OC)c(OC)c(OC)c3)ccc21`, the IC50 with HCT-116 was 3.04 µM; in the series on HepG2, 0.57 µM; in the series with SW480, 4.32 µM; in the series with HeLa it was 11.2 µM; in the series on MDA-MB-231 it was 4.69 µM. The molecule further displayed a half-inhibitory concentration (IC50) at 48 h in series [1] above 80 µM.
As for `COc1cc(-c2ccnn2-c2ccc(S(N)(=O)=O)cc2)cc(OC)c1OC`, in the series on HCT-116, the IC50 was above 64 µM.
`COc1cc(-c2nc(N)ncc2-c2ccc(S(C)(=O)=O)cc2)cc(OC)c1OC` came in with an IC50 in the series on HCT-116 above 64 µM.
Consider `COc1cc(-c2nc(N)ncc2-c2ccc3c(c2)OCCO3)cc(OC)c1OC`, for which, in the series with HCT-116, the half-maximal inhibitory concentration (IC50) was above 64 µM.
For `COc1ccc(-c2cnc(NC(C)=O)nc2-c2cc(OC)c(OC)c(OC)c2)cc1N`, the 50% inhibitory concentration (IC50) in the series on HCT-116, with HepG2, in the series on SW480, with HeLa and in the series on MDA-MB-231 was above 64 µM in each case. In series [1], this molecule had an IC50 at 48 h above 80 µM.
In the series with HCT-116, `COC(=O)c1ccc(-c2cnc(N)nc2-c2cc(OC)c(OC)c(OC)c2)cc1` returned an IC50 above 64 µM.
As for `COc1ccc(-c2cnc(N)nc2-c2cc(OC)c(OC)c(OC)c2)cc1C=O`, the IC50 in the series with HCT-116 was above 64 µM.
`COc1cc(-c2nc(N)ncc2-c2ccc(C)cc2)cc(OC)c1OC`: the IC50 in the series with HCT-116 is above 64 µM; with HepG2, 45.8 µM; in the series on SW480 it was 39.7 µM; with HeLa it was 25.2 µM; with MDA-MB-231, above 64 µM. Besides, in series [1], the IC50 at 48 h is above 80 µM.
Regarding `COc1cc(-c2ccnn2-c2ccccc2[N+](=O)[O-])cc(OC)c1OC`, the half-inhibitory concentration (IC50) in the series on HCT-116 is above 64 µM.
In the case of `COc1ccc(-c2cnc(N)nc2-c2cc(OC)c(OC)c(OC)c2)cc1`, the IC50 is 12.7 µM with HCT-116; 29.9 µM in the series on HepG2; above 64 µM with SW480; 60.5 µM with HeLa; 22.4 µM with MDA-MB-231. Also, the IC50 at 48 h in series [1] was above 80 µM.
With `COc1cc(-c2nc(N)ncc2-c2ccc(C)c(C)c2)cc(OC)c1OC`, the half-maximal inhibitory concentration (IC50) is 23.9 µM in the series on HCT-116; 15.2 µM in the series with HepG2; above 64 µM in the series on SW480; above 64 µM with HeLa; above 64 µM in the series on MDA-MB-231. The IC50 at 48 h in series [1] is above 80 µM.
Consider `COc1cc(-c2ccnn2-c2ccc(I)cc2)cc(OC)c1OC`, for which the IC50 came to 14.7 µM in the series on HCT-116; 5.64 µM in the series with HepG2; 28.2 µM with SW480; 23.4 µM in the series with HeLa; 8.21 µM with MDA-MB-231. This molecule also registered a 50% inhibitory concentration (IC50) at 48 h in series [1] above 80 µM.
`COc1ccc(-c2cnc(N)nc2-c2cc(OC)c(OC)c(OC)c2)cc1[N+](=O)[O-]` returned a 50% inhibitory concentration (IC50) in the series on HCT-116 above 64 µM.
`COc1cc(-c2nc(N)ncc2-c2cc3ccccc3s2)cc(OC)c1OC`: the IC50 in the series with HCT-116 is 4.22 µM; in the series with HepG2, 0.25 µM; in the series on SW480 it was 5.99 µM; with HeLa, 17.9 µM; in the series on MDA-MB-231, 14.5 µM. The concentration for half-maximal inhibition (IC50) at 48 h in series [1] was above 80 µM.
In the series on HCT-116, `COc1cc(-c2ccnn2-c2cccc3ccccc23)cc(OC)c1OC` yielded a 50% inhibitory concentration (IC50) above 64 µM.
The same measure, in the same setting: in the case of `COc1cccc(-c2cnc(N)nc2-c2cc(OC)c(OC)c(OC)c2)c1` it was above 64 µM.
As for `COc1cc(-c2ccnn2-c2ccc(C)c(C)c2)cc(OC)c1OC`, the IC50 in the series on HCT-116 is above 64 µM.
For `COc1cc(-c2nc(N)ncc2-c2cnc(N)nc2)cc(OC)c1OC`, in the series with HCT-116, the IC50 was above 64 µM.
`COc1cc(-c2ccnn2-c2ccc(Br)cc2)cc(OC)c1OC` came in with a 50% inhibitory concentration (IC50) in the series on HCT-116 above 64 µM.
Still for that read-out and setting: in the case of `COc1cc(-c2nc(N)ncc2-c2ccc(F)cc2)cc(OC)c1OC` it was above 64 µM.
Take `COc1cc(-c2nc(N)ncc2-c2ccc(SC)cc2)cc(OC)c1OC`: the IC50 is 11.8 µM with HCT-116; 52.1 µM in the series with HepG2; above 64 µM in the series with SW480; 37.8 µM in the series with HeLa; above 64 µM with MDA-MB-231. The same molecule came in with an IC50 at 48 h in series [1] above 80 µM.
Molecule `COc1cc(-c2nc(N)ncc2-c2ccc(CO)cc2)cc(OC)c1OC` yielded an IC50 with HCT-116 above 64 µM.
Turning to `COCc1ccc(-c2cnc(N)nc2-c2cc(OC)c(OC)c(OC)c2)cc1`, the IC50 in the series on HCT-116 is 16.7 µM; with HepG2, 2.04 µM; with SW480 it was above 64 µM; in the series on HeLa it was above 64 µM; in the series on MDA-MB-231, 14 µM. In series [1], this molecule gave an IC50 at 48 h above 80 µM.
`COc1cc(-c2ccnn2-c2ccc(OCc3ccccc3)cc2)cc(OC)c1OC` registered an IC50 with HCT-116 above 64 µM.
In the series on HCT-116, `COc1cc(-c2ccnn2-c2ccc(CO)cc2)cc(OC)c1OC` came in with an IC50 above 64 µM.
For `COc1cc(-c2ccnn2-c2ccc(Cl)cc2)cc(OC)c1OC`, the IC50 with HCT-116 was above 64 µM.
In the series with HCT-116, `COc1cc(-c2ccnn2-c2nccs2)cc(OC)c1OC` had an IC50 above 64 µM.
With `COc1ccc(-c2cnc(N)nc2-c2cc(OC)c(OC)c(OC)c2)cc1F`, the half-inhibitory concentration (IC50) with HCT-116 came out at 13 µM; in the series on HepG2, 34.1 µM; with SW480, 58.4 µM; in the series on HeLa it was 32.3 µM; with MDA-MB-231 it was 10.6 µM. For the same molecule, the half-maximal inhibitory concentration (IC50) at 48 h in series [1] was above 80 µM.
`COc1ccc(-c2cnc(N)nc2-c2cc(OC)c(OC)c(OC)c2)cc1Cl` had an IC50 with HCT-116 above 64 µM.
For the molecule `COc1ccc(-c2cnc(N)nc2-c2cc(OC)c(OC)c(OC)c2)cc1N`, the IC50 in the series with HCT-116 is 7.45 µM; in the series on HepG2, 17 µM; with SW480, 52.2 µM; with HeLa, above 64 µM; in the series on MDA-MB-231, 11.6 µM. The molecule further gave an IC50 at 48 h in series [1] above 80 µM.
